Data taken from patent US9688676B2, “Tyrosine kinase inhibitors” (PRINCIPIA BIOPHARMA INC., priority 2015, dated 2017).

Biological target: BTK (Homo sapiens (Human), UniProt Q06187)
Assay: BTK enzymatic activity assay (Caliper-based kinase assay)
Type: biochemical
Settings: human recombinant BTK 0.5 nM, ATP 16 μM, 3 h room temperature
Experimental: A Caliper-based kinase assay (Caliper Life Sciences, Hopkinton, Mass.) was used to measure inhibition of BTK kinase activity of a compound of the present disclosure. […] The reaction was then terminated with EDTA, final concentration 20 mM and the phosphorylated reaction product was quantified on a Caliper Desktop Profiler (Caliper LabChip 3000). […] This value is presented as the IC50.

BTK, sequence (Q06187 whole entry): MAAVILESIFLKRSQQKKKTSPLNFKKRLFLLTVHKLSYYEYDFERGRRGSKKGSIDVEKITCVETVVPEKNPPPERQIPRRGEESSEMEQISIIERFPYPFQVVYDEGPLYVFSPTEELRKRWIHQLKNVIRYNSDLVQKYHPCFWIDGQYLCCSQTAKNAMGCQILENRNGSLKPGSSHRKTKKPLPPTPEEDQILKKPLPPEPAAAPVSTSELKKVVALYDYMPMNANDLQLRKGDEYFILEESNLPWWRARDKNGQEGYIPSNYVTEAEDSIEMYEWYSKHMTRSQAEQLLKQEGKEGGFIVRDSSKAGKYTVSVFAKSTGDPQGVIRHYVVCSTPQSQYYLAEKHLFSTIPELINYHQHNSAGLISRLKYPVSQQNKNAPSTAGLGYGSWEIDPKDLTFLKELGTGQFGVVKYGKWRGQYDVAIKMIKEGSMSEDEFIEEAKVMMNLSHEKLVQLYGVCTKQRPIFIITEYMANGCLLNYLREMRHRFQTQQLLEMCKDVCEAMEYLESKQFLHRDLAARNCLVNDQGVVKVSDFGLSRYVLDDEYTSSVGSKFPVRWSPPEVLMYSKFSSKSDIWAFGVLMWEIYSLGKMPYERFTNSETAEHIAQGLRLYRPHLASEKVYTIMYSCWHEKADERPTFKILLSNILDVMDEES

## COC[C@H]1CCCN1C(C)(C)C=C(C#N)C(=O)N1CCC[C@@H](n2c(=O)n(-c3ccc(Oc4ccccc4)cc3)c3c(N)nccc32)C1 [Compound 62, 2-((R)-3-(4-amino-2-oxo-3-(4-phenoxyphenyl)-2,3-dihydro-1H-imidazo[4,5-c]pyridin-1-yl)piperidine-1-carbonyl)-4-((R)-2-(methoxymethyl)pyrrolidin-1-yl)-4-methylpent-2-enenitrile]
  IC50: 5.9 nM

## CC(C)(N)C=C(C#N)C(=O)N1CCC[C@@H](n2c(=O)n(-c3ccc(Oc4ccccc4)cc3)c3c(N)nccc32)C1 [Compound 57, (R)-4-amino-2-(3-(4-amino-2-oxo-3-(4-phenoxyphenyl)-2,3-dihydro-1H-imidazo[4,5-c]pyridin-1-yl)piperidine-1-carbonyl)-4-methylpent-2-enenitrile]
  IC50: 61.4 nM

## N#CC(=CC1CCSCC1)C(=O)N1CCC[C@@H](n2c(=O)n(-c3ccc(Oc4ccccc4)cc3)c3c(N)nccc32)C1 [Compound 20, (R)-2-(3-(4-amino-2-oxo-3-(4-phenoxyphenyl)-2,3-dihydro-1H-imidazo[4,5-c]pyridin-1-yl)piperidine-1-carbonyl)-3-(tetrahydro-2H-thiopyran-4-yl)acrylonitrile]
  IC50: 14.5 nM

## CC(C)(C=C(C#N)C(=O)N1CCC[C@@H](n2c(=O)n(-c3ccc(Oc4ccccc4)cc3F)c3c(N)nccc32)C1)N1CCN(C2COC2)CC1 [Compound 27, (R)-2-(3-(4-amino-3-(2-fluoro-4-phenoxyphenyl)-2-oxo-2,3-dihydro-1H-imidazo[4,5-c]pyridin-1-yl)piperidine-1-carbonyl)-4-methyl-4-(4-(oxetan-3-yl)piperazin-1-yl)pent-2-enenitrile]
  IC50: 4.9 nM

## CC(C)(C=C(C#N)C(=O)N1CCC[C@@H](n2c(=O)n(-c3ccc(Oc4ccccc4)cc3)c3c(N)nccc32)C1)N1CCN2C(=O)CC[C@@H]2C1 [Compound 61, 2-((R)-3-(4-amino-2-oxo-3-(4-phenoxyphenyl)-2,3-dihydro-1H-imidazo[4,5-c]pyridin-1-yl)piperidine-1-carbonyl)-4-methyl-4-((R)-6-oxohexahydropyrrolo[1,2-a]pyrazin-2(1H)-yl)pent-2-enenitrile]
  IC50: 2.5 nM

## N#CC(=CC1(c2ccccc2)CC1)C(=O)N1CCC[C@@H](n2c(=O)n(-c3ccc(Oc4ccccc4)cc3)c3c(N)nccc32)C1 [Compound 46, (R)-2-(3-(4-amino-2-oxo-3-(4-phenoxyphenyl)-2,3-dihydro-1H-imidazo[4,5-c]pyridin-1-yl)piperidine-1-carbonyl)-3-(1-phenylcyclopropyl)acrylonitrile]
  IC50: 13.1 nM

## CC(C)(C=C(C#N)C(=O)N1CCC[C@@H](n2c(=O)n(-c3ccc(Oc4ccccc4)c(F)c3)c3c(N)nccc32)C1)N1CCN(C2COC2)CC1 [Compound 26, (R)-2-(3-(4-amino-3-(3-fluoro-4-phenoxyphenyl)-2-oxo-2,3-dihydro-1H-imidazo[4,5-c]pyridin-1-yl)piperidine-1-carbonyl)-4-methyl-4-(4-(oxetan-3-yl)piperazin-1-yl)pent-2-enenitrile]
  IC50: 3.5 nM

## CN1CCN(C(C)(C)C=C(C#N)C(=O)N2CCC[C@H]2Cn2c(=O)n(-c3ccc(Oc4ccccc4)cc3)c3c(N)nccc32)CC1 [Compound 34, (S)-2-(2-((4-amino-2-oxo-3-(4-phenoxyphenyl)-2,3-dihydro-1H-imidazo[4,5-c]pyridin-1-yl)methyl)pyrrolidine-1-carbonyl)-4-methyl-4-(4-methylpiperazin-1-yl)pent-2-enenitrile]
  IC50: 23.1 nM

## C[C@@H]1CN(C(C)(C)C=C(C#N)C(=O)N2CCC[C@@H](n3c(=O)n(-c4ccc(Oc5ccccc5)cc4)c4c(N)nccc43)C2)C[C@H](C)N1 [Compound 19, 2-((R)-3-(4-amino-2-oxo-3-(4-phenoxyphenyl)-2,3-dihydro-1H-imidazo[4,5-c]pyridin-1-yl)piperidine-1-carbonyl)-4-((3R,5S)-3,5-dimethylpiperazin-1-yl)-4-methylpent-2-enenitrile]
  IC50: 7.8 nM

## CN(C)C(=O)C(C)(C)C=C(C#N)C(=O)N1CCC[C@@H](n2c(=O)n(-c3ccc(Oc4ccccc4)cc3)c3c(N)nccc32)C1 [Compound 50, (R)-5-(3-(4-amino-2-oxo-3-(4-phenoxyphenyl)-2,3-dihydro-1H-imidazo[4,5-c]pyridin-1-yl)piperidin-1-yl)-4-cyano-N,N,2,2-tetramethyl-5-oxopent-3-enamide]
  IC50: 8.3 nM

## CO[C@@H]1CCN(C(C)(C)C=C(C#N)C(=O)N2CCC[C@@H](n3c(=O)n(-c4ccc(Oc5ccccc5)cc4)c4c(N)nccc43)C2)C1 [Compound 60, 2-((R)-3-(4-amino-2-oxo-3-(4-phenoxyphenyl)-2,3-dihydro-1H-imidazo[4,5-c]pyridin-1-yl)piperidine-1-carbonyl)-4-((R)-3-methoxypyrrolidin-1-yl)-4-methylpent-2-enenitrile]
  IC50: 2.4 nM

## N#CC(=CC1CC1(F)F)C(=O)N1CCC[C@@H](n2c(=O)n(-c3ccc(Oc4ccccc4)cc3)c3c(N)nccc32)C1 (stereo partly drawn) [Compound 52, (R)-2-(3-(4-amino-2-oxo-3-(4-phenoxyphenyl)-2,3-dihydro-1H-imidazo[4,5-c]pyridin-1-yl)piperidine-1-carbonyl)-3-(2,2-difluorocyclopropyl)acrylonitrile]
  IC50: 12 nM

## CN1CCN(c2cccc(C(C)(C)C=C(C#N)C(=O)N3CCC[C@@H](n4c(=O)n(-c5ccc(Oc6ccccc6)cc5)c5c(N)nccc54)C3)n2)CC1 [Compound 54, (R)-2-(3-(4-amino-2-oxo-3-(4-phenoxyphenyl)-2,3-dihydro-1H-imidazo[4,5-c]pyridin-1-yl)piperidine-1-carbonyl)-4-methyl-4-(6-(4-methylpiperazin-1-yl)pyridin-2-yl)pent-2-enenitrile]
  IC50: 17.8 nM

## (R)-2-(3-(4-amino-2-oxo-3-(4-phenoxyphenyl)-2,3-dihydro-1H-imidazo[4,5-c]pyridin-1-yl)piperidine-1-carbonyl)-3-(4-methyl-1-(oxetan-3-yl)piperidin-4-yl)acrylonitrile [Compound 42]
  IC50: 4.1 nM

## N#CC(=CC1CC1)C(=O)N1CCC[C@@H](n2c(=O)n(-c3ccc(Oc4ccccc4)cc3)c3c(N)nccc32)C1 [Compound 41, (R)-2-(3-(4-amino-2-oxo-3-(4-phenoxyphenyl)-2,3-dihydro-1H-imidazo[4,5-c]pyridin-1-yl)piperidine-1-carbonyl)-3-cyclopropylacrylonitrile]
  IC50: 3.1 nM

## CN1CCN(C(=O)C(C)(C)C=C(C#N)C(=O)N2CCC[C@@H](n3c(=O)n(-c4ccc(Oc5ccccc5)cc4)c4c(N)nccc43)C2)CC1 [Compound 49, (R)-2-(3-(4-amino-2-oxo-3-(4-phenoxyphenyl)-2,3-dihydro-1H-imidazo[4,5-c]pyridin-1-yl)piperidine-1-carbonyl)-4,4-dimethyl-5-(4-methylpiperazin-1-yl)-5-oxopent-2-enenitrile]
  IC50: 12.8 nM

## CN(C1COC1)C(C)(C)C=C(C#N)C(=O)N1CCC[C@H]1Cn1c(=O)n(-c2ccc(Oc3ccccc3)cc2)c2c(N)nccc21 [Compound 36, (S)-2-(2-((4-amino-2-oxo-3-(4-phenoxyphenyl)-2,3-dihydro-1H-imidazo[4,5-c]pyridin-1-yl)methyl)pyrrolidine-1-carbonyl)-4-methyl-4-(methyl(oxetan-3-yl)amino)pent-2-enenitrile]
  IC50: 15.7 nM

## CN1CCN(C(C)(C)C=C(C#N)C(=O)N2CCC[C@H]2Cn2c(=O)n(-c3ccc(Oc4ccccc4)cc3)c3c(N)nccc32)CC1=O [Compound 35, (S)-2-(2-((4-amino-2-oxo-3-(4-phenoxyphenyl)-2,3-dihydro-1H-imidazo[4,5-c]pyridin-1-yl)methyl)pyrrolidine-1-carbonyl)-4-methyl-4-(4-methyl-3-oxopiperazin-1-yl)pent-2-enenitrile]
  IC50: 26.2 nM

## N#CC(=CC(CCO)CCO)C(=O)N1CCC[C@@H](n2c(=O)n(-c3ccc(Oc4ccccc4)cc3)c3c(N)nccc32)C1 [Compound 11, (R)-2-(3-(4-amino-2-oxo-3-(4-phenoxyphenyl)-2,3-dihydro-1H-imidazo[4,5-c]pyridin-1-yl)piperidine-1-carbonyl)-6-hydroxy-4-(2-hydroxyethyl)hex-2-enenitrile]
  IC50: 78.6 nM

## CC(=O)N1CCN(C(C)(C)C=C(C#N)C(=O)N2CCC[C@@H](n3c(=O)n(-c4ccc(Oc5ccccc5)cc4)c4c(N)nccc43)C2)CC1 [Compound 44, (R)-4-(4-acetylpiperazin-1-yl)-2-(3-(4-amino-2-oxo-3-(4-phenoxyphenyl)-2,3-dihydro-1H-imidazo[4,5-c]pyridin-1-yl)piperidine-1-carbonyl)-4-methylpent-2-enenitrile]
  IC50: 3.3 nM

## N#CC(=CC1CC[S+]([O-])CC1)C(=O)N1CCC[C@@H](n2c(=O)n(-c3ccc(Oc4ccccc4)cc3)c3c(N)nccc32)C1 (stereo partly drawn) [Compound 39, (R)-2-(3-(4-amino-2-oxo-3-(4-phenoxyphenyl)-2,3-dihydro-1H-imidazo[4,5-c]pyridin-1-yl)piperidine-1-carbonyl)-3-(1-oxidotetrahydro-2H-thiopyran-4-yl)acrylonitrile]
  IC50: 5.3 nM

## COCC1(C=C(C#N)C(=O)N2CCC[C@@H](n3c(=O)n(-c4ccc(Oc5ccccc5)cc4)c4c(N)nccc43)C2)CCOCC1 [Compound 66, (R)-2-(3-(4-amino-2-oxo-3-(4-phenoxyphenyl)-2,3-dihydro-1H-imidazo[4,5-c]pyridin-1-yl)piperidine-1-carbonyl)-3-(4-(methoxymethyl)tetrahydro-2H-pyran-4-yl)acrylonitrile]
  IC50: 2 nM

## CC(C)(C=C(C#N)C(=O)N1CCC[C@@H](n2c(=O)n(-c3ccc(Oc4ccccc4)cc3)c3c(N)ncnc32)C1)N1CCN(C2COC2)CC1 [Compound 31, (R)-2-(3-(6-amino-8-oxo-7-(4-phenoxyphenyl)-7H-purin-9(8H)-yl)piperidine-1-carbonyl)-4-methyl-4-(4-(oxetan-3-yl)piperazin-1-yl)pent-2-enenitrile]
  IC50: 3.7 nM
